{
  "source": "patent US11939307B2",
  "about": "“Phenylmethyl-piperazine derivatives and antiviral uses thereof” (INSTITUTE OF MEDICINAL BIOTECHNOLOGY, CHINESE ACADEMY OF …, priority 2019, dated 2024)",
  "data": [
    {"tested_on": "HCV", "assay": "Assay of anti-HCV activity in HCV-infected Huh7.5 cells (intracellular HCV RNA by one-step quantitative RT-PCR)", "assay_type": "cell-based", "conditions": "Hepatitis C virus; compound at 1 μM; Huh7.5 cells infected with HCV; 96 hrs; intracellular HCV RNA vs viral control; read-out: inhibitory activities (inhibitory levels of the compounds against HCV replication)", "how_it_was_run": "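Huh7.5 cells were infected with HCV particles while compounds were added at 1 μM, then incubated 96 h at 37 °C, 5% CO2. Intracellular HCV RNA was quantified by one-step qRT-PCR, and inhibition was calculated relative to the viral control.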", "units": {"inhibition at 1 µM": "%"}, "values": [
      {"smiles": "N#Cc1ccc(NCCCn2ccnc2)cc1CN1CCN(C(c2ccc(Cl)cc2)c2ccc(Cl)cc2)CC1", "note": "[Compound 106, 4-([3-(1H-imidazol-1-yl)propyl]amino)-2-({4-[bis(4-chlorophenyl)methyl]piperazin-1-yl}methyl)benzonitrile]", "inhibition at 1 µM": "> 75"},
      {"smiles": "CN(C)CCN(C)c1ccc(C(F)(F)F)c(CN2CCN(c3ccc(Cl)c(Cl)c3)CC2)c1", "note": "[Compound 107, N^1-(3-((4-(3,4-dichlorophenyl)piperazin-1-yl)methyl)-4-(trifluoromethyl)phenyl)-N^1,N^2,N^2-trimethylethan-1,2-diamine]", "inhibition at 1 µM": "> 75"},
      {"smiles": "Cc1cc(N2CCN(Cc3cc(N(C)CCN(C)C)ccc3C(F)(F)F)CC2)ccc1Cl", "note": "[Compound 108, N^1-(3-((4-(4-chloro-3-methylphenyl)piperazin-1-yl)methyl)-4-(trifluoromethyl)phenyl)-N^1,N^2,N^2-trimethylethan-1,2-diamine]", "inhibition at 1 µM": "> 75"},
      {"smiles": "CN1CCCN(c2ccc(C(F)(F)F)c(CN3CCN(c4ccc(Cl)c(Cl)c4)CC3)c2)CC1", "note": "[Compound 109, 1-(3-((4-(3,4-dichlorophenyl)piperazin-1-yl)methyl)-4-(trifluoromethyl)phenyl)-4-methyl-1,4-diazepane]", "inhibition at 1 µM": "> 75"}
    ]}
  ]
}
